Test system: A-375 cells
Assay: Cytotoxicity of conjugate versus uncoupled drug, serial dilutions
Assay type: cell-based
Conditions: drug alone versus conjugate, Figure 6

`COc1cccc2c1C(=O)c1c(O)c3c(c(O)c1C2=O)C[C@@](O)(C(=O)CO)C[C@@H]3O[C@H]1C[C@H](N2CCOCC2)[C@H](O)[C@H](C)O1` [MRA, morpholino doxorubicin] was tested, and the cytotoxicity was “Identical cytoxicity”.

From patent EP0476408A1, “Chemical conjugation of morpholino anthracyclines to antibodies” (RESEARCH CORPORATION TECHNOLOGIES, INC., priority 1990, dated 1992)
